Biological target: Prothrombin (Homo sapiens) (UniProt P00734)
Assay: Relative prothrombin time was determined as the activity of the test ODN (oligodeoxynucleotide) relative to that of GS-522

| Structure (SMILES) | Relative PT |
| --- | --- |
| Cc1cn([C@H]2C[C@H](OP(=O)(O)OC[C@H]3O[C@@H](n4cnc5c(=O)nc(N)[nH]c54)C[C@@H]3OP(=O)(O)OC[C@H]3O[C@@H](n4cnc5c(=O)[nH]c(=N)[nH]c54)C[C@@H]3OP(=O)(O)OC[C@H]3O[C@@H](n4cc(C)c(=O)[nH]c4=O)C[C@@H]3OP(=O)(O)OC[C@H]3O[C@@H](n4cc(C)c(=O)[nH]c4=O)C[C@@H]3OP(=O)(O)OC[C@H]3O[C@@H](n4cnc5c(=O)[nH]c(=N)[nH]c54)C[C@@H]3OP(=O)(O)OC[C@H]3O[C@@H](n4cnc5c(=O)nc(N)[nH]c54)C[C@@H]3O)[C@@H](COCO[C@H]3C[C@H](n4cnc5c(=O)nc(N)[nH]c54)O[C@@H]3COP(=O)(O)O[C@H]3C[C@H](n4cc(C)c(=O)[nH]c4=O)O[C@@H]3COP(=O)(O)O[C@H]3C[C@H](n4cnc5c(=O)[nH]c(=N)[nH]c54)O[C@@H]3COP(=O)(O)O[C@H]3C[C@H](n4cnc5c(=O)nc(N)[nH]c54)O[C@@H]3COP(=O)(O)O[C@H]3C[C@H](n4cc(C)c(=O)[nH]c4=O)O[C@@H]3COP(=O)(O)O[C@H]3C[C@H](n4cc(C)c(=O)[nH]c4=O)O[C@@H]3COP(=O)(O)O[C@H]3C[C@H](n4cnc5c(=O)nc(N)[nH]c54)O[C@@H]3COP(=O)(O)O[C@H]3C[C@H](n4cnc5c(=O)nc(N)[nH]c54)O[C@@H]3COP(=O)(O)O)O2)c(=O)[nH]c1=O | 1.1 |
| Cc1cn([C@H]2C[C@H](OCOC[C@H]3O[C@@H](n4cc(C)c(=O)[nH]c4=O)C[C@@H]3OP(=O)(O)OC[C@H]3O[C@@H](n4cnc5c(=O)nc(N)[nH]c54)C[C@@H]3OP(=O)(O)OC[C@H]3O[C@@H](n4cnc5c(=O)[nH]c(=N)[nH]c54)C[C@@H]3OP(=O)(O)OC[C@H]3O[C@@H](n4cc(C)c(=O)[nH]c4=O)C[C@@H]3OCOC[C@H]3O[C@@H](n4cnc5c(=O)[nH]c(=N)[nH]c54)C[C@@H]3OP(=O)(O)OC[C@H]3O[C@@H](n4cc(C)c(=O)[nH]c4=O)C[C@@H]3OP(=O)(O)OC[C@H]3O[C@@H](n4cnc5c(=O)nc(N)[nH]c54)C[C@@H]3OP(=O)(O)OC[C@H]3O[C@@H](n4cnc5c(=O)[nH]c(=N)[nH]c54)C[C@@H]3OP(=O)(O)OC[C@H]3O[C@@H](n4cc(C)c(=O)[nH]c4=O)C[C@@H]3OCOC[C@H]3O[C@@H](n4cc(C)c(=O)[nH]c4=O)C[C@@H]3OP(=O)(O)OC[C@H]3O[C@@H](n4cnc5c(=O)[nH]c(=N)[nH]c54)C[C@@H]3OP(=O)(O)OC[C@H]3O[C@@H](n4cnc5c(=O)nc(N)[nH]c54)C[C@@H]3O)[C@@H](COP(=O)(O)O[C@H]3C[C@H](n4cnc5c(=O)nc(N)[nH]c54)O[C@@H]3COP(=O)(O)O[C@H]3C[C@H](n4cnc5c(=O)[nH]c(=N)[nH]c54)O[C@@H]3COP(=O)(O)O)O2)c(=O)[nH]c1=O | 0.9 |
| Cc1cn([C@H]2C[C@H](OP(=O)(O)OC[C@H]3O[C@@H](n4cnc5c(=O)nc(N)[nH]c54)C[C@@H]3OP(=O)(O)OC[C@H]3O[C@@H](n4cnc5c(=O)[nH]c(=N)[nH]c54)C[C@@H]3OP(=O)(O)OC[C@H]3O[C@@H](n4cc(C)c(=O)[nH]c4=O)C[C@@H]3OP(=O)(O)OC[C@H]3O[C@@H](n4cnc5c(=O)nc(N)[nH]c54)C[C@@H]3OP(=O)(O)OC[C@H]3O[C@@H](n4cc(C)c(=O)[nH]c4=O)C[C@@H]3OP(=O)(O)OC[C@H]3O[C@@H](n4cnc5c(=O)nc(N)[nH]c54)C[C@@H]3OCOC[C@H]3O[C@@H](n4cnc5c(=O)[nH]c(=N)[nH]c54)C[C@@H]3OP(=O)(O)OC[C@H]3O[C@@H](n4cc(C)c(=O)[nH]c4=O)C[C@@H]3OP(=O)(O)OC[C@H]3O[C@@H](n4cc(C)c(=O)[nH]c4=O)C[C@@H]3OP(=O)(O)OC[C@H]3O[C@@H](n4cnc5c(=O)[nH]c(=N)[nH]c54)C[C@@H]3OP(=O)(O)OC[C@H]3O[C@@H](n4cnc5c(=O)nc(N)[nH]c54)C[C@@H]3O)[C@@H](COP(=O)(O)O[C@H]3C[C@H](n4cc(C)c(=O)[nH]c4=O)O[C@@H]3COP(=O)(O)O[C@H]3C[C@H](n4cnc5c(=O)nc(N)[nH]c54)O[C@@H]3COCO[C@H]3C[C@H](n4cnc5c(=O)nc(N)[nH]c54)O[C@@H]3COP(=O)(O)O)O2)c(=O)[nH]c1=O | 0.7 |

Now from value to compound:

| Relative PT | Structure (SMILES) |
| --- | --- |
| 1.1 | Cc1cn([C@H]2C[C@H](OCOC[C@H]3O[C@@H](n4cc(C)c(=O)[nH]c4=O)C[C@@H]3OP(=O)(O)OC[C@H]3O[C@@H](n4cnc5c(=O)nc(N)[nH]c54)C[C@@H]3OP(=O)(O)OC[C@H]3O[C@@H](n4cnc5c(=O)[nH]c(=N)[nH]c54)C[C@@H]3OP(=O)(O)OC[C@H]3O[C@@H](n4cc(C)c(=O)[nH]c4=O)C[C@@H]3OP(=O)(O)OC[C@H]3O[C@@H](n4cnc5c(=O)[nH]c(=N)[nH]c54)C[C@@H]3OP(=O)(O)OC[C@H]3O[C@@H](n4cc(C)c(=O)[nH]c4=O)C[C@@H]3OP(=O)(O)OC[C@H]3O[C@@H](n4cnc5c(=O)nc(N)[nH]c54)C[C@@H]3OP(=O)(O)OC[C@H]3O[C@@H](n4cnc5c(=O)[nH]c(=N)[nH]c54)C[C@@H]3OP(=O)(O)OC[C@H]3O[C@@H](n4cc(C)c(=O)[nH]c4=O)C[C@@H]3OCOC[C@H]3O[C@@H](n4cc(C)c(=O)[nH]c4=O)C[C@@H]3OP(=O)(O)OC[C@H]3O[C@@H](n4cnc5c(=O)[nH]c(=N)[nH]c54)C[C@@H]3OP(=O)(O)OC[C@H]3O[C@@H](n4cnc5c(=O)nc(N)[nH]c54)C[C@@H]3O)[C@@H](COP(=O)(O)O[C@H]3C[C@H](n4cnc5c(=O)[nH]c(=N)[nH]c54)O[C@@H]3COP(=O)(O)O[C@H]3C[C@H](n4cnc5c(=O)nc(N)[nH]c54)O[C@@H]3COP(=O)(O)O)O2)c(=O)[nH]c1=O |
| 0.9 | Cc1cn([C@H]2C[C@H](OP(=O)(O)OC[C@H]3O[C@@H](n4cc(C)c(=O)[nH]c4=O)C[C@@H]3OP(=O)(O)OC[C@H]3O[C@@H](n4cnc5c(=O)nc(N)[nH]c54)C[C@@H]3OP(=O)(O)OC[C@H]3O[C@@H](n4cnc5c(=O)[nH]c(=N)[nH]c54)C[C@@H]3OP(=O)(O)OC[C@H]3O[C@@H](n4cc(C)c(=O)[nH]c4=O)C[C@@H]3OP(=O)(O)OC[C@H]3O[C@@H](n4cnc5c(=O)[nH]c(=N)[nH]c54)C[C@@H]3OP(=O)(O)OC[C@H]3O[C@@H](n4cc(C)c(=O)[nH]c4=O)C[C@@H]3OP(=O)(O)OC[C@H]3O[C@@H](n4cnc5c(=O)nc(N)[nH]c54)C[C@@H]3OP(=O)(O)OC[C@H]3O[C@@H](n4cnc5c(=O)[nH]c(=N)[nH]c54)C[C@@H]3OP(=O)(O)OC[C@H]3O[C@@H](n4cc(C)c(=O)[nH]c4=O)C[C@@H]3OP(=O)(O)OC[C@H]3O[C@@H](n4cc(C)c(=O)[nH]c4=O)C[C@@H]3OP(=O)(O)OC[C@H]3O[C@@H](n4cnc5c(=O)[nH]c(=N)[nH]c54)C[C@@H]3OP(=O)(O)OC[C@H]3O[C@@H](n4cnc5c(=O)nc(N)[nH]c54)C[C@@H]3O)[C@@H](COCO[C@H]3C[C@H](n4cnc5c(=O)nc(N)[nH]c54)O[C@@H]3COP(=O)(O)O[C@H]3C[C@H](n4cnc5c(=O)nc(N)[nH]c54)O[C@@H]3COP(=O)(O)O)O2)c(=O)[nH]c1=O |
